For assay [1], the target named is T1, S. cerevisiae (yeast) cells expressing SRIF receptors (Rattus norvegicus, UniProt P30680).
T1 construct: expressed in transfected cells; host or cells: S. cerevisiae strain LY364
As to the kind of experiment: Yeast bioassay for SRIF antagonist activity (LY364 cells growing in response to SRIF, zone of growth inhibition). Type of assay: cell-based. The settings on record: Sample type 4th iteration; 10 μL of 5 mg/mL on disk, SRIF 10 nM, read after 3 days. The source says: SRIF antagonist assay using S. cerevisiae (yeast) cells expressing SRIF receptors that grow in response to SRIF
Agar plates containing LY364 cells that are growing in the presence of added SRIF are the basis for a sensitive SRIF antagonist assay, whereby zones of growth inhibition result from the addition of SRIF antagonists to the surface of the agar plate (see L. A. Price, et al., Molecular and Cellular Biology, 15, 6188-6195, 1995, incorporated herein by reference).
In this assay, LY364 cells are grown overnight in 2 mL of synthetic complete(SC) medium (3.4 g/L YNB without amino acids and ammonium sulfate, 10 g/L ammonium sulfate and 1.4 g/L CSM-ura-trp) with glucose (2%) and without uracil and tryptophan. These cells are washed and cultured for 4 to 8 hours in 5 mL of SC medium with lactate (3%) and without uracil and tryptophan, and finally grown overnight in 5 mL of SC medium with galactose (2%) and without uracil and tryptophan. Molten (50° C.) SC agar medium with galactose (2%) and without uracil, tryptophan and histidine is adjusted to pH 6.8 with KOH, mixed with 2×10^4 cells/mL and SRIF (S-14, 10 nM) and poured into square (20×20 cm) petri dishes. Sterile filter disks are placed on the surface of the agar, and saturated with 10 μL of water or DMSO containing 5 mg/mL test peptides. After three days, the plates display a uniform cloudy background of LY264 cells growing in response to the added SRIF. […] This zone is quantified by measuring its diameter (mm), which varies according to the potency of the SRIF antagonist. Those peptides or mixtures of peptides displaying the largest zones of inhibition are further characterized.
Values are compared among samples in the same experiment, as the degree of yeast growth varies somewhat from assay to assay. For the first five sample types, in which progressively less complex mixtures of peptides are found, this assay is the primary determining factor in choosing which samples form the basis of subsequent syntheses.
Plates are read after 3 days. Samples shown in Table I in bold type are chosen for further synthesis. In Table I, all amino acids are D-amino acids and dashes represent undefined amino acid residues.

Assay [2] has as its target T2, rat SSTR2 (Rattus norvegicus, UniProt P30680).
T2 construct: expressed in transfected cells; host or cells: GH4C1 rat pituitary tumor cells
Nature of the assay: cAMP accumulation in forskolin-stimulated GH4 C1/SSTR2 cells. In kind it is cell-based. The settings on record: GH4-C1; test peptide 2 μM; read-out: cAMP Assay, Intrinsic activity (percent reversal of SSTR2 activation by SRIF or MK678). The source says: A primary effect of SRIF upon mammalian cells is the reduction of cyclic adenosine 3',5'-monophosphate(cAMP) levels, via inhibition of adenylyl cyclase. This is the basis of a common assay for SRIF agonists and antagonists, whereby SRIF agonists reduce artificially stimulated cAMP levels, and SRIF antagonists reverse the effect of SRIF. The rat pituitary tumor cell line GH4 C1 predominantly expresses SSTR2, and responds to SRIF and to forskolin, a stimulator of adenylate cyclase (see C. M. Eppler, et al., J. Biol. Chem., 267, 15603-15612, 1992, incorporated herein by reference). A highly sensitive assay for SRIF agonists and antagonists results from additionally transfecting GH4 C1 cells with the cloned rat SSTR2, (see L. A. Price, et al., Molecular and Cellular Biology, 15, 6188-6195, 1995, incorporated herein by reference). This increases the response to SRIF and provides a greater dynamic range for the measurement of SRIF antagonist activity.
Stimulation of cells. GH4 C1 /SSTR2 cells, grown in DMEM with 10% bovine serum, are released from a tissue culture dish by incubation for several minutes at 37° C. with PBS containing 0.5 mM EDTA. Cells are washed in induction buffer (PBS containing 100 μM IBMX (an inhibitor of cAMP breakdown) and 2 mM CaCl2) at room temperature, and resuspended at 2×10^6 /mL in induction buffer. Into each well of a 96-well tray are added 50 μL of a 2× concentration of stimulants in induction buffer. These include (at final concentration) 1.25 μM forskolin, 100 nM SRIF or 10 nM of the SSTR2-selective agonist MK678 and test peptides at various concentrations. To initiate stimulation of the cells, 50 μL (100,000) cells are added to each well, mixed by shaking 10 seconds on a plate shaker and placed at 37° C. for 15 minutes. Stimulation is arrested and cells are lysed by adding 15 μL 0.33N HCl to each well and incubating the plate for 30 minutes at 37° C. Samples are neutralized by addition of 15 μL 0.25N NaOH/50 mM Hepes pH 7.4. Baseline cAMP levels are determined in samples with no added forskolin or SRIF, and each treatment is performed in triplicate.
cAMP assay. To measure accumulated cAMP in the samples, a radioimmunoassay is employed. The scintillation proximity assay (SPA, Amersham, Arlington Heights, Ill.) allows the rapid measurement of ^125 I cAMP bound to a specific antibody without separating bound radioligand from free radioligand. Each of the following reagents (50 μL) are added per well in a 96-well tray: supernatants from the cell stimulation; ^125 I cAMP; SPA beads conjugated to monkey anti-rabbit IgG antibodies; and rabbit anti-cAMP antibodies. For the standard curve, known amounts of cAMP (0.2-12.8 pmol) are added in place of cell supernatants. The 96-well tray is sealed, shaken at room temperature overnight and measured for bound radioligand in a MicroBeta liquid scintillation counter (Wallac, Gaithersburg, Md.). The standard curve is determined for each experiment by performing a nonlinear regression (exponential decay) analysis of cpm measured for the cAMP standards vs. their log concentrations, and test sample values are determined by using Prism software (Graphpad Software Inc., San Diego, Calif.) and are shown in Table II and FIG. 1. FIG. I illustrates the antagonist activity of Peptide 1.
The intrinsic activity of an SRIF antagonist is the percent reversal of the SSTR2, activation by SRIF or MK678, wherein 0% is defined by cAMP levels in samples treated with forskolin plus SRIF or MK678 and 100% is the cAMP level measured after treatment with forskolin alone. Therefore, increased intrinsic activity of a test compound indicates increased antagonist activity of said test compound.
FIG. […]
An inverse agonist is a compound that is not only a pure antagonist (i.e. lacking agonist activity), but also blocks the constitutive activity of an unoccupied receptor. One indication of inverse agonist activity is the ability of a SRIF antagonist to increase cAMP levels in the absence of added SRIF. […]
(In general: Cyclic AMP is a second messenger, typically raised through Gs and lowered through Gi signalling.)

In assay [3] the test system is Male Sprague-Dawley rats. Nature of the assay: Serum growth hormone levels in anaesthetized rats (peptide 1, BIM 23014C). In kind it is in vivo, rat. The procedure:
Evaluation in anaesthetized rats. Male Sprague-Dawley rats are anaesthetized with Sagatal and fitted so as to allow efficient intravenous treatment with control and test compounds as well as frequent blood sampling. Blood samples are tested for growth hormone (GH) levels by radioimmunoassay. Thirty minutes after the initiation of blood sampling, rats are given 5 μg, 25 μg or 50 μg of peptide 1.

Consider 13 compounds from patent US5925618A, “Peptides useful as somatostatin antagonists” (American Cyanamid Company, priority 1998, dated 1999).

Square brackets hold non-standard residues; d marks the D form. Peptide text beside a SMILES is read from it.

T2 sequence (P30680 whole entry): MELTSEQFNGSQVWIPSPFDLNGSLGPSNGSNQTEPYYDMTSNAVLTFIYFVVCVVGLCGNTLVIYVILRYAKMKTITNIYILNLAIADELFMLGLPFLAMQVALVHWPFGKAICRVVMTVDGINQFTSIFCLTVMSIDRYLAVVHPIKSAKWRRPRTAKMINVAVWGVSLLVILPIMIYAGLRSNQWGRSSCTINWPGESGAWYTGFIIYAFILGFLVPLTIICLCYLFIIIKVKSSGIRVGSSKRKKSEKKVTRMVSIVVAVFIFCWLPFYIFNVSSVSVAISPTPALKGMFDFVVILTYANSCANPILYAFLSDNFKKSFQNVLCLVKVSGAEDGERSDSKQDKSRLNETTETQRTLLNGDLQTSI
T1 sequence (P30680 whole entry): as above

On to `CC[C@@H](C)[C@@H](NC(=O)[C@@H](Cc1ccccc1)NC(=O)[C@@H](Cc1c[nH]cn1)NC(C)=O)C(=O)N[C@H](CCCNC(=N)N)C(=O)N[C@H](Cc1c[nH]c2ccccc12)C(=O)N[C@H](CC(C)C)C(N)=O` [His Phe Ile Arg Trp Leu] (Ac-[dH][dF][dI][dR][dW][dL]-NH2), for which the “Inhibition Zone” value in assay [1] was 15 mm.

Take `CC[C@@H](C)[C@@H](NC(=O)[C@@H](Cc1ccccc1)NC(=O)[C@@H](Cc1c[nH]cn1)NC(C)=O)C(=O)N[C@H](CCCNC(=N)N)C(=O)N[C@H](Cc1c[nH]c2ccccc12)C(=O)N[C@@H](C(N)=O)[C@H](C)O` [His Phe Ile Arg Trp Thr] (Ac-[dH][dF][dI][dR][dW][dT]-NH2): in assay [1], the “Inhibition Zone” value was 14 mm.

Take `CC[C@@H](C)[C@@H](NC(=O)[C@@H](Cc1ccccc1)NC(=O)[C@@H](Cc1c[nH]cn1)NC(C)=O)C(=O)N[C@H](CCCNC(=N)N)C(=O)N[C@H](Cc1c[nH]c2ccccc12)C(=O)N[C@H](CC(N)=O)C(N)=O` [His Phe Ile Arg Trp Asn] (Ac-[dH][dF][dI][dR][dW][dN]-NH2): the “Inhibition Zone” value in assay [1] is on record as 15 mm.

With `CC[C@@H](C)[C@@H](NC(=O)[C@@H](Cc1ccccc1)NC(=O)[C@@H](Cc1c[nH]cn1)NC(C)=O)C(=O)N[C@H](CCCNC(=N)N)C(=O)N[C@H](Cc1c[nH]c2ccccc12)C(=O)N[C@H](CCSC)C(N)=O` [His Phe Ile Arg Trp Met] (Ac-[dH][dF][dI][dR][dW][dM]-NH2), the “Inhibition Zone” value in assay [1] was 18 mm.

For the compound `CC[C@@H](C)[C@@H](NC(=O)[C@@H](Cc1ccccc1)NC(=O)[C@@H](Cc1c[nH]cn1)NC(C)=O)C(=O)N[C@H](CCCNC(=N)N)C(=O)N[C@H](Cc1c[nH]c2ccccc12)C(=O)NCC(N)=O` [His Phe Ile Arg Trp Gly] (Ac-[dH][dF][dI][dR][dW]G-NH2), the “Inhibition Zone” value in assay [1] was determined as 13 mm.

`CC[C@@H](C)[C@@H](NC(=O)[C@@H](Cc1ccccc1)NC(=O)[C@@H](Cc1c[nH]cn1)NC(C)=O)C(=O)N[C@H](CCCNC(=N)N)C(=O)N[C@@H](Cc1c[nH]c2ccccc12)C(=O)N[C@H](Cc1ccccc1)C(N)=O` [Peptide 17, h-f-i-r-W-f] (Ac-[dH][dF][dI][dR]W[dF]-NH2): the Emax in assay [2] is 50.2%.

As to `CC(C)[C@@H]1NC(=O)[C@H](CCCCN)NC(=O)[C@@H](Cc2c[nH]c3ccccc23)NC(=O)[C@H](Cc2ccc(O)cc2)NC(=O)[C@@H](NC(=O)[C@H](N)Cc2ccc3ccccc3c2)CSSC[C@@H](C(=O)N[C@H](C(N)=O)[C@@H](C)O)NC1=O` [BIM 23014C, reference compound], the SGH in assay [3] (5 μg peptide 1 group, 10 μg BIM 23014C at 60 min, sample 75 min) is 7.0 ng/mL; in assay [3] (5 μg peptide 1 group, 60 min (time of 10 μg BIM 23014C dose)) it was 11.4 ng/mL; in assay [3] (25 μg peptide 1 group, 10 μg BIM 23014C at 60 min, sample 75 min), 6.8 ng/mL; in assay [3] (25 μg peptide 1 group, 60 min (time of 10 μg BIM 23014C dose)) it was 13.1 ng/mL; in assay [3] (50 μg peptide 1 group, 10 μg BIM 23014C at 60 min, sample 75 min), 3.5 ng/mL; in assay [3] (50 μg peptide 1 group, 60 min (time of 10 μg BIM 23014C dose)), 17.1 ng/mL. Also, the “serum GH levels after SRIF agonist” value in assay [3] (10 μg at 60 minutes) is “induces the expected reduction in serum GH levels”.

For `CC[C@@H](C)[C@@H](NC(=O)[C@@H](CCCNC(=N)N)NC(=O)[C@@H](Cc1ccccc1)NC(C)=O)C(=O)N[C@H](CCCNC(=N)N)C(=O)N[C@H](Cc1c[nH]c2ccccc12)C(=O)N[C@H](Cc1ccccc1)C(N)=O` [Peptide 25, f-r-i-r-w-f] (Ac-[dF][dR][dI][dR][dW][dF]-NH2), the Emax in assay [2] came to 10.8%.

With `CC[C@@H](C)[C@@H](NC(=O)[C@@H](Cc1ccc(O)cc1)NC(=O)[C@@H](CCCCN)NC(C)=O)C(=O)N[C@H](CCCNC(=N)N)C(=O)N[C@H](Cc1c[nH]c2ccccc12)C(=O)N[C@H](Cc1ccccc1)C(N)=O` [Peptide 19, k-y-i-r-w-f] (Ac-[dK][dY][dI][dR][dW][dF]-NH2), in assay [2], the Emax was determined as 33.3%.

As to `CC[C@@H](C)[C@@H](NC(=O)[C@@H](Cc1ccccc1)NC(=O)[C@@H](Cc1c[nH]cn1)NC(C)=O)C(=O)N[C@H](CCCNC(=N)N)C(=O)N[C@H](Cc1c[nH]c2ccccc12)C(=O)N[C@@H](Cc1ccccc1)C(N)=O` [Peptide 18, h-f-i-r-w-F] (Ac-[dH][dF][dI][dR][dW]F-NH2), the Emax in assay [2] was 46.7%.

For `CC[C@@H](C)[C@@H](NC(=O)[C@@H](Cc1ccccc1)NC(=O)[C@H](Cc1c[nH]cn1)NC(C)=O)C(=O)N[C@H](CCCNC(=N)N)C(=O)N[C@H](Cc1c[nH]c2ccccc12)C(=O)N[C@H](Cc1ccccc1)C(N)=O` [Peptide 13, H-f-i-r-w-f] (Ac-H[dF][dI][dR][dW][dF]-NH2), the Emax in assay [2] stood at 26.2%.

On to `CC[C@H](C)[C@H](NC(=O)[C@@H](Cc1ccccc1)NC(=O)[C@@H](Cc1c[nH]cn1)NC(C)=O)C(=O)N[C@H](CCCNC(=N)N)C(=O)N[C@H](Cc1c[nH]c2ccccc12)C(=O)N[C@H](Cc1ccccc1)C(N)=O` [Peptide 15, h-f-I-r-w-f] (Ac-[dH][dF]I[dR][dW][dF]-NH2), for which the Emax in assay [2] amounted to 9.71%.

As to `CC(=O)N[C@H](Cc1c[nH]cn1)C(=O)N[C@H](Cc1ccccc1)C(=O)N[C@@H](C(=O)N[C@H](CCCNC(=N)N)C(=O)N[C@H](Cc1c[nH]c2ccccc12)C(=O)N[C@H](Cc1ccccc1)C(N)=O)C(C)C` [Peptide 28, h-f-v-r-w-f] (Ac-[dH][dF][dV][dR][dW][dF]-NH2), the Emax in assay [2] was determined as 71.2%.
